Source: article PMC10780413, “Flavonoid Metabolites in Serum and Urine after the Ingestion of Selected Tropical Fruits” (Nutrients, 2024)
Like-named read-outs stand apart in the source and are kept apart here. Each block holds one compound with its values, some of them ahead of it.

What was measured:
[1] = Bioavailability estimated from total urinary excretion and flavonoid content in fruits; assay type: in vivo; details: human, 200 g, 200 g edible part, fruit content from ref 10, read-out: Estimated bioavailability (total urinary amount as % of content in fruit)
Procedure: Hollman et al. reported the bioavailability of quercetin from apples and pure quercetin-3-rutinose was only 30% compared to onions. Here, we assumed the flavonoids recovering in urine had passed the blood compartment. […] In the two-hundred grams of edible part, guava and pineapple contained about 6900 μg and 850 μg of quercetin, respectively. The total amount of urinary quercetin accounted for 13% and 80% of the quercetin content in the respective fruits. […] It should be noted that, the bioavailability of flavonoids may be underestimated because the biliary excretion of flavonoids was not taken into account. Moreover, the urinary methyl-conjugated favonoids were not quantified in this study.

[2] = parameters: method as in PMID 25212140; details: after ingestion of rooibos tea; cited from earlier work
[3] = assay type: in vivo, human; details: after guava, pineapple, pomelo
Procedure: Participants maintained a low-flavonoid diet (e.g., diet without vegetables, fruits, or chocolate) for two days and fasted for 8 h before the study to avoid any contribution from other foods containing flavonoids. Servings of fresh fruits of 200 g were given to the participants followed by 200 mL water. Beverages containing alcohol and caffeine were prohibited during the test period. Venous blood samples were collected before and 2, 4, 6, and 8 h after fruit ingestion. Serum was immediately prepared using centrifugation 233× g at 4 °C for 15 min, 200 mM ascorbic acid was added, and the samples were then stored at −20 °C until the analysis (within two weeks). Urine samples were collected at intervals of 0–4, 4–6, 6–8, 8–12, and 12–24 h in plastic bottles containing 70 mg of ascorbic acid per 100 mL of urine. The volume of urine sample was measured and then centrifuged at 233× g to remove the precipitate. […]
Flavonoid analysis was measured by a modified method of Biessaga [15] and Mullen et al. [16]. […]

[4] = plasma; cited from earlier work
[5] = test system: xanthine oxidase; parameters: method as in PMID 11118813; details: cited from earlier work
[6] = test system: LPS-induced pulmonary injury; parameters: method as in PMID 37335159; details: in vitro and in vivo models; cited from earlier work
[7] = parameters: method as in PMID 14709621; details: in vitro study; cited from earlier work
[8] = Serum concentration of flavonoid metabolites after ingestion of 200 g fresh fruit (LC-MS/MS after enzyme hydrolysis); assay type: in vivo, human; details: despite presence in the selected fruits
Description: Three groups of six healthy subjects (male and female) between 20 and 30 years of age, with a body mass index between 18 and 25, were recruited for this study. Each group of participant received one kind of fruit. They were not alcohol drinkers, smokers, drug users, nor pregnant. They had not taken any medications for at least one month prior to the experiment. All participants underwent health checks for their hematological and biochemical profiles. There was no clinical presentation of gastrointestinal diseases (peptic ulcer), kidney diseases, liver diseases or jaundice, heart diseases, asthma, or diabetes mellitus. Levels of blood glucose before and 4 h after fruit ingestion were monitored in all subjects. […]
Participants maintained a low-flavonoid diet (e.g., diet without vegetables, fruits, or chocolate) for two days and fasted for 8 h before the study to avoid any contribution from other foods containing flavonoids. […] The volume of urine sample was measured and then centrifuged at 233× g to remove the precipitate. […]
The conjugated metabolites of flavonoids, glucuronic acid, and sulfate conjugates were determined in the serum and urine after hydrolyzing with β-glucuronidase (EC 3.2.1.31, bovine liver type B-I, Sigma, St Louis, MO, USA) and aryl sulfatase (EC 3.1.6.1, Merk, Darmstadt, Germany), respectively, at 37 °C for 16 h. […]

[9] = cited from earlier work
[10] = parameters: method as in PMID 11361045; details: cited from earlier work

Compound: O=c1c(O)c(-c2cc(O)c(O)c(O)c2)oc2cc(O)cc(O)c12 [Myricetin, myricetin]
- Conjugated forms recovered in urine [3]: only detected in sulfate form
- Share that is glucuronide in the 3′-position [4]: 20–40%
- bioavailability ([1]; in vivo, from guava): 5%
- bioavailability ([1]; in vivo, from pineapple): 10%

Compound: O=C(O)[C@H]1O[C@@H](Oc2cc(-c3oc4cc(O)cc(O)c4c(=O)c3O)ccc2O)[C@H](O)[C@@H](O)[C@@H]1O [3′-quercetin glucuronide]
- Inhibitory effect on xanthine oxidase [5]: potent inhibitory effect

Compound: O=C(O)[C@H]1O[C@@H](Oc2c(-c3ccc(O)c(O)c3)oc3cc(O)cc(O)c3c2=O)[C@H](O)[C@@H](O)[C@@H]1O [quercetin-3-glucuronide]
- Activity in LPS-induced pulmonary injury [6]: exerted antioxidant and anti-inflammatory activity
- Inhibitory effect on xanthine oxidase [5]: not active

Compound: C[C@@H]1O[C@@H](OC[C@H]2O[C@@H](Oc3c(-c4ccc(O)c(O)c4)oc4cc(O)cc(O)c4c3=O)[C@H](O)[C@@H](O)[C@@H]2O)[C@H](O)[C@H](O)[C@H]1O [quercetin-3-rutinose, reference compound]
- Bioavailability of quercetin compared to onions ([9]; in vivo): 30%

Compound: O=C(O)[C@H]1O[C@@H](Oc2ccc(-c3oc4cc(O)cc(O)c4c(=O)c3O)cc2O)[C@H](O)[C@@H](O)[C@@H]1O [4′-quercetin glucuronide]
- Inhibitory effect on xanthine oxidase [5]: potent inhibitory effect

Compound: O=c1c(O)c(-c2ccc(O)cc2)oc2cc(O)cc(O)c12 [Kaempferol, kaempferol]
- Conjugated forms recovered in urine [3]: found in both conjugated metabolites
- Share that is glucuronide in the 3′-position [4]: 20–40%
- bioavailability ([1]; urine, oral, from pineapple): 10%
- bioavailability ([1]; urine, oral, from pomelo): 1%

Now from value to compound, other results behind:

- bioavailability ([1]; urine, oral, from guava): 5%
- bioavailability ([1]; urine, oral, from pomelo): 5%
Compound: O=c1cc(-c2ccc(O)c(O)c2)oc2cc(O)cc(O)c12 [Luteolin, luteolin]
- Tmax [2]: 1.5 to 3 h

- Detection in serum or urine after fruit ingestion [8]: did not detect
Compound: O=c1cc(-c2ccc(O)cc2)oc2cc(O)cc(O)c12 [apigenin]
- Phase I metabolism, major metabolite [7]: forms luteolin as a major metabolite

- Detection in serum or urine after fruit ingestion [8]: did not detect
Compound: COc1ccc([C@@H]2CC(=O)c3c(O)cc(O)cc3O2)cc1O [hesperetin]

- Conjugated forms recovered in urine [3]: found in both conjugated metabolites
- bioavailability ([1]; urine, oral, from guava): 13%
- bioavailability ([1]; urine, oral, from pineapple): 80%
Compound: O=c1c(O)c(-c2ccc(O)c(O)c2)oc2cc(O)cc(O)c12 [Quercetin, quercetin]
- Bioavailability of quercetin compared to onions ([9]; from apples): 30%
- Share that is glucuronide in the 3′-position [4]: 20–40%
- Tmax of quercetin ([10]; after ingesting buckwheat tea): 4.3 h
- Tmax of quercetin ([10]; after ingesting quercetin-3-rutioside): 6.9 h
- Tmax of quercetin ([10]; after single ingestion of onion): 0.7 h
- Tmax of quercetin ([10]; after single ingestion of quercetin-4’-glucoside): 0.7 h
